Test results as given in patent publication US7576175B2, “Alpha-4 beta-1 integrin ligands for imaging and therapy” (The Regents of the University of California, priority 2004, dated 2009).
Read-outs that look alike come from different tables or passages of the source. Numbered stars: 1 amine (or outer) side, 2 acyl side, 3 side chain; on linkers, the order of the positions; unused ones are H or OH. Square brackets hold non-standard residues; d marks the D form. Peptide text beside a SMILES is read from it. * marks the point of attachment. Acryloyl(3-(3-pyridyl),E) = O=C(/C=C/c1cccnc1)*; dBpa = N[C@H](Cc1ccc(C(=O)c2ccccc2)cc1)C(=O)O; d2Nal = N[C@H](Cc1ccc2ccccc2c1)C(=O)O; Ala(cPr) = N[C@@H](CC1CC1)C(=O)O; Hyp = O=C(O)[C@@H]1C[C@@H](O)CN1; X1 = O=C(Cc1ccc(N[*:1])cc1)[*:2]; d3Pal = N[C@H](Cc1cccnc1)C(=O)O; Aad = N[C@@H](CCCC(=O)O)C(=O)O; Cha = N[C@@H](CC1CCCCC1)C(=O)O; NH(2-Me-phenyl) = Cc1ccccc1N*; Chg = N[C@H](C(=O)O)C1CCCCC1; Nle = CCCC[C@H](N)C(=O)O; Ac5c = NC1(C(=O)O)CCCC1; Ac3c = NC1(C(=O)O)CC1; CO = O=C([*:1])[*:2]

Tests used:
α4β1 integrin [1] = biological target: T1, α4β1 integrin (Homo sapiens, UniProt P05556+P13612); test: Bead-binding inhibition assay: soluble ligand inhibits binding of Jurkat cells to BIO-1211-containing beads; format: cell-based; conditions: for binding affinity for α4β1 integrin in the bead-binding inhibition assay: soluble ligand vs BIO-1211-containing beads, Jurkat cells
T1 construct: screened against live Jurkat cells (α4β1 integrin-positive); endogenous in cells; host or cells: Jurkat T-leukemia cells
T1 sequence (P13612 34-1032): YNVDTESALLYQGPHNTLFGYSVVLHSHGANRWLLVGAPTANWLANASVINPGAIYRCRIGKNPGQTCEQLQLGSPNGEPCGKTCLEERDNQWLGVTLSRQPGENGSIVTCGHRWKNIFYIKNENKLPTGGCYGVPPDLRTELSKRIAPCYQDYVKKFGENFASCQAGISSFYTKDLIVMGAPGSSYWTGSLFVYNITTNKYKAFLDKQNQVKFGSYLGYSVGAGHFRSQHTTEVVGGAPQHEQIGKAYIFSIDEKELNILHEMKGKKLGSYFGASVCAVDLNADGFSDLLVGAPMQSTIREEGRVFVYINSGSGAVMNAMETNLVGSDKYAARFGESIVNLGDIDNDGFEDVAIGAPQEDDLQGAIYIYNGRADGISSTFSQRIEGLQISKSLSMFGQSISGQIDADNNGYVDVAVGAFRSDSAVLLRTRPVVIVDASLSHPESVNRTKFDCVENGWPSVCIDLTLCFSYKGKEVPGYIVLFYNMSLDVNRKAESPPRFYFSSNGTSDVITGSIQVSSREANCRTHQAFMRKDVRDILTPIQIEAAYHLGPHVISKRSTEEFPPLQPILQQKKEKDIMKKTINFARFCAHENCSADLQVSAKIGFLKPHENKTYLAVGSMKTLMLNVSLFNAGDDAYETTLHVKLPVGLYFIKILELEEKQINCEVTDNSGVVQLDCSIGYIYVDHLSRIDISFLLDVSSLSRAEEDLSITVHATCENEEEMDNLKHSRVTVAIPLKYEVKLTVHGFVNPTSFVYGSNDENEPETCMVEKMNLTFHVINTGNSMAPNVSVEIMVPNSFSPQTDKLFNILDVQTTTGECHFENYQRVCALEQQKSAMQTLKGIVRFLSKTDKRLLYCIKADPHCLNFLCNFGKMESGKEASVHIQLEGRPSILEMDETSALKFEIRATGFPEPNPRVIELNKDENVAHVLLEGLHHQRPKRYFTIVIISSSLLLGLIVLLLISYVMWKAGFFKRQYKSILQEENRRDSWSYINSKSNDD
T1 sequence (P05556 21-798): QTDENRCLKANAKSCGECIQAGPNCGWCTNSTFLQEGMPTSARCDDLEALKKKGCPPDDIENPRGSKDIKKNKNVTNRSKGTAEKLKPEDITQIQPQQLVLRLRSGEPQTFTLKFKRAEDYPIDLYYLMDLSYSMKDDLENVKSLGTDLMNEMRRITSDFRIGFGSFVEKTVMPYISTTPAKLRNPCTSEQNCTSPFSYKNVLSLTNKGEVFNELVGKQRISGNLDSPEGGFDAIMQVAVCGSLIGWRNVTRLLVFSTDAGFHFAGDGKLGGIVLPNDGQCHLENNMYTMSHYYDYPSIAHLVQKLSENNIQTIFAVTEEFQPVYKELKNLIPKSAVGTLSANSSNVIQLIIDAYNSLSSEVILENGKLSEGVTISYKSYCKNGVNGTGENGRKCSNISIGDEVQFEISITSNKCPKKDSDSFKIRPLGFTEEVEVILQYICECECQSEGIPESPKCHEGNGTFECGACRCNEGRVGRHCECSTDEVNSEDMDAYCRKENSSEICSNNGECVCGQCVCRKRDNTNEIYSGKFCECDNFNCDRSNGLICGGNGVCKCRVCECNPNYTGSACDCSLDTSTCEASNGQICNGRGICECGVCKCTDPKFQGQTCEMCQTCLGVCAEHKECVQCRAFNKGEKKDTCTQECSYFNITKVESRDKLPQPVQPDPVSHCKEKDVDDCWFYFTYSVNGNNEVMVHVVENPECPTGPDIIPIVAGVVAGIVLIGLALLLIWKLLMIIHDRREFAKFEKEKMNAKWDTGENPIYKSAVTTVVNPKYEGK
Text: To this end, the bead library was screened using Jurkat cells in the presence of BIO-1211.
This library was screened using a competitive cell-based screening method with high stringency so that only those ligands with very high affinity to α4β1 integrin are coated by a layer of lymphoma cells (FIG. 2). To achieve this, an increasing amount of known α4β1 antagonist was incorporated into the screening solution, which competed with the interaction between cell surface α4β1 integrin and the immobilized library compounds on the bead surface, until a limited number of positive beads were detected in the library. […] Twenty beads were isolated under these high stringency conditions. Guanidine HCl (8 M) was used to strip the beads of all cells and proteins. The recovered beads were then retested with normal peripheral blood lymphocytes. Beads that bound preferentially to Jurkat cells but not to normal lymphocytes were sequenced. A total of twelve true positive beads were isolated and decoded, which represented 6 independent ligands. All of the identified ligands have the following structure:
The bead-binding inhibition assay was performed using the soluble ligand to inhibit the binding of Jurkat cells to the BIO-1211-containing beads.

α4β1 integrin [2] = biological target: T1, α4β1 integrin; test: Cell-based α4β1-mediated adhesion assay: inhibition of Jurkat cell adhesion to immobilized CS-1 peptide (IC50)
[3] = Jurkat cell adhesion to CS-1 peptide, re-synthesized ligands of Tables 18 and 19, read-out: IC50

| SMILES | IC50 (α4β1 integrin [2]; [3]) [pM] | IC50 (α4β1 integrin [2]) [pM] | other results |
| --- | --- | --- | --- |
| Cc1ccccc1NC(=O)Nc1ccc(CC(=O)N[C@@H](CCCCNC(=O)/C=C/c2cccnc2)C(=O)N[C@@H](CCCC(=O)O)C(=O)NC2(C(N)=O)CCCCC2)cc1 [2A] |  |  | binding affinity for α4β1 integrin in the bead-binding inhibition assay (α4β1 integrin [1]): highest binding affinities |
| Cc1ccccc1NC(=O)Nc1ccc(CC(=O)N[C@@H](CCCCNC(=O)/C=C/c2cccnc2)C(=O)N[C@@H](CCCC(=O)O)C(=O)N[C@H](C(N)=O)C(C)C)cc1 [15A] | 200 |  |  |
| Cc1ccccc1NC(=O)Nc1ccc(C(C)C(=O)N[C@@H](CCCCNC(=O)/C=C/c2cccnc2)C(=O)N[C@@H](CCCC(=O)O)C(=O)NC2(C(N)=O)CCCCC2)cc1 (stereo partly drawn) [2B] | 9500 |  |  |
| Cc1ccccc1NC(=O)Nc1ccc(CC(=O)N[C@@H](CC2CC2)C(=O)N[C@@H](CCCC(=O)O)C(=O)N[C@H](C(=O)NC2(C(=O)N[C@H](CC(=O)O)C(=O)N[C@H](CCC(=O)O)C(N)=O)CCCC2)C2CCCCC2)cc1 [10A] ({NH(2-Me-phenyl)-CO}-[X1][Ala(cPr)][Aad][Chg][Ac5c][dD][dE]-NH2) |  | 530 |  |
| CCCC[C@H](NC(=O)Cc1ccc(NC(=O)Nc2ccccc2C)cc1)C(=O)N[C@@H](CCCC(=O)O)C(=O)N[C@H](C(=O)N1C[C@H](O)C[C@H]1C(=O)N[C@@H](CCCC(=O)O)C(N)=O)C1CCCCC1 [9A] ({NH(2-Me-phenyl)-CO}-[X1][Nle][Aad][Chg][Hyp][Aad]-NH2) |  | 1450 |  |
| Cc1ccccc1NC(=O)Nc1ccc(CC(=O)N[C@@H](CCCCNC(=O)/C=C/c2cccnc2)C(=O)N[C@@H](CCCC(=O)O)C(=O)NC2(C(=O)N[C@H](CC(=O)O)C(N)=O)CC2)cc1 [3A] ({NH(2-Me-phenyl)-CO}-[X1]K(Acryloyl(3-(3-pyridyl),E))[Aad][Ac3c][dD]-NH2) |  | 500 | binding affinity for α4β1 integrin in the bead-binding inhibition assay (α4β1 integrin [1]): highest binding affinities |
| Cc1ccccc1NC(=O)Nc1ccc(CC(=O)N[C@@H](CCCCNC(=O)/C=C/c2cccnc2)C(=O)N[C@@H](CCCC(=O)O)C(=O)N[C@@H](C(N)=O)C(C)C)cc1 [16A] | 200 |  |  |
| Cc1ccccc1NC(=O)Nc1ccc(C(C)C(=O)N[C@@H](CCCCNC(=O)/C=C/c2cccnc2)C(=O)N[C@@H](CCCC(=O)O)C(=O)N[C@H](Cc2ccccc2)C(N)=O)cc1 (stereo partly drawn) [1B] | 8900 |  |  |
| CCCC[C@H](NC(=O)Cc1ccc(NC(=O)Nc2ccccc2C)cc1)C(=O)N[C@@H](CCCC(=O)O)C(=O)N[C@@H](CC1CCCCC1)C(=O)N[C@H](CCC(=O)O)C(N)=O [8A] ({NH(2-Me-phenyl)-CO}-[X1][Nle][Aad][Cha][dE]-NH2) |  | 750 |  |
| Cc1ccccc1NC(=O)Nc1ccc(CC(=O)N[C@@H](CCCCNC(=O)/C=C/c2cccnc2)C(=O)N[C@@H](CCCC(=O)O)C(=O)N[C@H](Cc2ccccc2)C(=O)N[C@H](CC(=O)O)C(N)=O)cc1 [4A] ({NH(2-Me-phenyl)-CO}-[X1]K(Acryloyl(3-(3-pyridyl),E))[Aad][dF][dD]-NH2) |  | 400 | concentration inhibiting binding of Jurkat cells to BIO-1211-containing beads, compared with BIO-1211 (α4β1 integrin [1]; overnight incubation, FIG. 7): significantly lower concentration than BIO-1211; binding affinity for α4β1 integrin in the bead-binding inhibition assay (α4β1 integrin [1]): highest binding affinities |
| Cc1ccccc1NC(=O)Nc1ccc(CC(=O)N[C@@H](CCCCNC(=O)/C=C/c2cccnc2)C(=O)N[C@@H](CCCC(=O)O)C(=O)N[C@H](Cc2ccccc2)C(=O)N[C@H](Cc2cccnc2)C(N)=O)cc1 [7A] ({NH(2-Me-phenyl)-CO}-[X1]K(Acryloyl(3-(3-pyridyl),E))[Aad][dF][d3Pal]-NH2) |  | 4000 |  |
| Cc1ccccc1NC(=O)Nc1ccc(CC(=O)N[C@@H](CCCCNC(=O)/C=C/c2cccnc2)C(=O)N[C@@H](CCCC(=O)O)C(=O)N[C@@H](Cc2ccccc2)C(N)=O)cc1 [14A] |  | 200 |  |
| Cc1ccccc1NC(=O)Nc1ccc(CC(=O)N[C@@H](CCCCNC(=O)/C=C/c2cccnc2)C(=O)N[C@@H](CCCC(=O)O)C(=O)N[C@H](Cc2ccccc2)C(N)=O)cc1 [1A] | 22 |  |  |
| Cc1ccccc1NC(=O)Nc1ccc(CC(=O)N[C@@H](CCCCNC(=O)/C=C/c2cccnc2)C(=O)N[C@@H](CCCC(=O)O)C(=O)N[C@H](Cc2ccc3ccccc3c2)C(=O)N[C@@H](C(=O)N[C@H](Cc2ccc(C(=O)c3ccccc3)cc2)C(N)=O)[C@H](C)O)cc1 [11A] ({NH(2-Me-phenyl)-CO}-[X1]K(Acryloyl(3-(3-pyridyl),E))[Aad][d2Nal][dT][dBpa]-NH2) |  | 77500 |  |
| Cc1ccccc1NC(=O)Nc1ccc(CC(=O)N[C@@H](CCCCNC(=O)/C=C/c2cccnc2)C(=O)N[C@@H](CCCC(=O)O)C(=O)N[C@H](Cc2ccccc2)C(=O)O)cc1 [12A] | 400 |  |  |
